Values after ≈ are worked out from the molar mass of the structure shown. Values joined by “and” are separate entries in the source; they are usually repeats but may differ in a detail not shown here. Equal values may be shown once. Read-outs that look alike come from different tables or passages of the source.
Tests used:
HIV-1 = conditions: cited from earlier work
[1] = cited from earlier work
HIV-1NL4–3-eGFP = assay: microbe, parasite or virus in culture; assay type: cell-based; conditions: replicates
Source text: Supplementary Fi gur e 9. ProTide Biological Characterizations. […]
(1 picture or pasted object on this page, not shown here)

HIV-1ADA = assay: Antiretroviral EC50/IC50 in MDM by HIV-1 RT activity after HIV-1ADA challenge; assay type: cell-based; conditions: for EC50: Human immunodeficiency virus 1, 240 h; for HIV-1 RT activity (Figure 2C source data): MDM, HIV-1ADA, replicates
Method: To determine long-term antiretroviral efficacy following a single treatment, MDMs were plated in flat-bottom 12-well plates at a density of 1.2 × 10^6 cells/well. […] After treatment, the cells were washed twice with PBS and cultured in a fresh culture medium without drug with half-media replacement every other day. On days 1, 5, 10, 15, 20, 25, and 30 following treatment, the cells were infected with HIV-1ADA (a macrophage-tropic viral strain) at a multiplicity of infection of 0.1 infectious particles/cell for 8 h. MDM were cultured, and media samples collected on day 10 for the measurement of HIV reverse transcriptase (RT) activity as previously described[64],[65]. Cells were fixed in 2% PFA at each time point, and expression of the HIV-1p24 antigen was determined by immunocytochemistry. […] After 4 h of viral challenge, the cells were washed with PBS and given fresh media that contained the same concentrations of drug (0.00005–5,000 nM). Cell supernatants were collected 10 days later and assayed for HIV-1 RT activity as described above. Replicate studies were performed in CEM-ss CD4+ T-cell cultures. Specifically, cells were plated in 96-well plates, centrifuged at 650 × g for 5 min, and resuspended in (0.1–1,000 nM) drug-containing media for 1 h. The subsequent challenge with HIV-1NL4–3-eGFP, cell culture, sample collection, and determination of HIV-1 RT activity were performed as previously reported[13],[15].

[2] = Aqueous and 1-octanol solubility (excess drug, shaking 48 h, UPLC-UV); assay type: physicochemical; conditions: for solubility at 48 h: water, thermodynamic from solid
Method: Samples were centrifuged at 20,000 × g for 10 min to separate the solubilized drug from insoluble pellet. Aqueous supernatants were frozen, lyophilized, and then resuspended in MeOH. 1-octanol supernatants were prepared for analysis by dilution in MeOH and samples analyzed for drug content by UPLC-UV (Waters Acquity H Class).

[3] = Prodrug chemical stability of dissociated nanoformulations in pH 2.0-10.3 buffers; assay type: physicochemical; conditions: buffers pH 2.0-10.3, 24 h
Method: The mixtures were centrifuged at 16,000 × g for 10 min. The supernatants were aspirated and stored at −80 °C until ultraperformance liquid chromatography tandem mass spectrometry (UPLC-MS/MS) analysis.

[4] = Prodrug stability in human plasma with or without heat-inactivation; assay type: in vitro ADME
Source text: Point 4. “It would be interesting to see what happens with separate injection at 56 days. Will mast cells occur or was a IgG or IGM response measured?”
Response: The transient presence of mast cells at the intramuscular site of injection is a normal physiological tissue injury response and has been previously observed after intramuscular injection of phosphate buffered saline or aqueous nanocrystalline compounds (Journal of the Neurological Sciences […]
al, mast cells could affect host protein adsorption to the particle surface to influence phagocytosis efficiency, lymphatic nanoparticle uptake and prodrug hydrolytic susceptibility. Other findings by Paquette et al. noted that the foreign body response observed following intramuscular or subcutaneous dosing of […]
Res. 2014; 31(8): 2065–2077). […]
immunogenicity markers were previously measured (PLoS One. 2015 Dec 30;10(12):e0145966. doi:
10.1371/journal.pone.0145966). In our prior studies we have assessed temporal leukocyte responses, drug uptake and distribution following multiple site injection of nanoformulated drugs. […]
inflammatory responses heralded drug distribution to macrophage populations, regional lymph nodes, spleen and liver. This proceeded changes in myeloid populations as determined through flow cytometric tests of changed CD45, CD3, CD11b, F4/80, and GR-1 surface markers. […]

[5] = Log Drug Concentration (uM) -12
[6] = Figure 1C source data, read-out: water solubility, individual replicates
[7] = room temperature, 48 h, read-out: aqueous solubilities

Structure (SMILES)	% GFP Positive (HIV-1NL4–3-eGFP; Log Drug Concentration (uM) -1)	% GFP Positive (HIV-1NL4–3-eGFP; Log Drug Concentration (uM) -2)	% GFP Positive (HIV-1NL4–3-eGFP; Log Drug Concentration (uM) -3)	% GFP Positive (HIV-1NL4–3-eGFP; Log Drug Concentration (uM) -4)	% GFP Positive (HIV-1NL4–3-eGFP; Log Drug Concentration (uM) -5)	% GFP Positive (HIV-1NL4–3-eGFP; Log Drug Concentration (uM) -6)	% GFP Positive (HIV-1NL4–3-eGFP; Log Drug Concentration (uM) -9)	% GFP Positive (HIV-1NL4–3-eGFP; [5])	EC50 (HIV-1ADA)	HIV-1 RT activity (Figure 2C source data) (HIV-1ADA; 5e-5 nM)	HIV-1 RT activity (Figure 2C source data) (HIV-1ADA; 0.0005 nM)	HIV-1 RT activity (Figure 2C source data) (HIV-1ADA; 0.005 nM)	HIV-1 RT activity (Figure 2C source data) (HIV-1ADA; 0.05 nM)	HIV-1 RT activity (Figure 2C source data) (HIV-1ADA; 0.5 nM)	HIV-1 RT activity (Figure 2C source data) (HIV-1ADA; 5 nM)	HIV-1 RT activity (Figure 2C source data) (HIV-1ADA; 50 nM)	HIV-1 RT activity (Figure 2C source data) (HIV-1ADA; 500 nM)	HIV-1 RT activity (Figure 2C source data) (HIV-1ADA; 5000 nM)	water solubility, individual replicates ([2]; Figure 1C source data)	solubility at 48 h [2, 6]	also measured
C[C@@H](Cn1cnc2c(N)ncnc21)OCP(=O)(O)OP(=O)(O)OP(=O)(O)O [TFV-DP, TFV-diphosphate]	–	–	–	–	–	–	–	–	–	–	–	–	–	–	–	–	–	–	–	–	EC90 linked to HIV-1 prevention (HIV-1): 16−48 fmol/10^6 cells; human EC90 (HIV-1): 40 fmol/10^6 cells; intracellular half-life [1]: 60 to 100 h
CCCCCCCCCCCCCCCCCCCCCCOC(=O)[C@H](C)NP(=O)(CO[C@H](C)Cn1cnc2c(N)ncnc21)Oc1ccccc1 (stereo partly drawn) [M2TFV]	34.257% and 38.787% and 40.022%	32.595% and 37.488% and 35.513%	41.233% and 50.41% and 33.492%	35.706% and 41.394% and 37.81%	40.045% and 36.193% and 55.429%	38.435% and 46.924% and 37.203%	35.618% and 35.142% and 32.671%	34.002% and 36.532% and 30.423%	45.8 nM	13.739 and 9.752 and 35.142 and 27.238	8.448 and 5.392 and 11.763 and 48.649	4.57 and 12.93 and 25.65	20.147 and 8.847 and 17.324 and 34.222	8.161 and 9.38 and 10.627 and 29.921	11.203 and 10.291 and 8.118 and 21.328	5.19 and 8.444 and 10.014 and 13.232	0.193 and 0.074 and 0.345 and 0.105	0.109 and 0.079 and 0.087 and 0.068	0.01251	12.8 µg/mL (≈ 17.2 µM)	solubility at 48 h [2, 7]: 7 µg/mL (≈ 9.42 µM)
CCCCCCCCCCCCCCCCCCCCCCOC(=O)[C@H](Cc1ccccc1)NP(=O)(CO[C@H](C)Cn1cnc2c(N)ncnc21)Oc1ccccc1 (stereo partly drawn) [M1TFV]	3.432% and 0.342% and 0.154%	34.73% and 38.138% and 34.265%	36.744% and 32.312% and 31.881%	44.656% and 35.338% and 30.526%	36.768% and 35.49% and 33.571%	35.681% and 31.592% and 30.989%	32.583% and 32.39% and 32.614%	35.706% and 34.095% and 37.882%	109 nM	44.264 and 8.411 and 11.973	42.363 and 4.488 and 5.375 and 2.931	26.663 and 5.953 and 9.965 and 9.489	19.017 and 5.47 and 12.158 and 10.741	23.553 and 6.74 and 16.993 and 9.609	22.939 and 4.566 and 20.189 and 10.617	10.793 and 9.389 and 15.273 and 9.576	1.18 and 0.8 and 2.373 and 0.711	0.069 and 0.042 and 0.107 and 0.063	0.0003886	0.276 µg/mL (≈ 0.338 µM)	% GFP Positive (HIV-1NL4–3-eGFP; Log Drug Concentration (uM) 0): 0.301% and 0.201% and 0.21%; solubility at 48 h [2, 7]: 2 µg/mL (≈ 2.44 µM); hydrolytic stability across pH [3]: enhanced prodrug stability over a broader pH range; prodrug stability in human plasma [4]: greater prodrug stability is observed following heat-inactivation
C[C@H](Cn1cnc2c(N)ncnc21)OCP(=O)(O)O [TFV]	31.924% and 40.715% and 38.216%	37.754% and 35.95% and 31.757%	42.49% and 36.095% and 44.333%	39.731% and 37.304% and 35.107%	38.31% and 35.838% and 38.644%	32.278% and 38.458% and 41.384%	41.35% and 30.768%	42.035% and 35.935% and 39.23%	–	–	–	–	–	–	–	–	–	–	–	–	% GFP Positive (HIV-1NL4–3-eGFP; Log Drug Concentration (uM) 0): 36.84% and 37.843%

From PMC8445934, “Transformation of tenofovir into stable ProTide nanocrystals with long-acting pharmacokinetic profiles” (Nature Communications, 2021)
